Reference: patent US8168596B2, “Use of cycloartane compounds for treating arthritis” (NuLiv Holding Inc., priority 2008, dated 2012)

Tests used:
SW1353 cells = experiment: Cell viability assay (Cell Counting Kit 8); assay type: cell-based, human; conditions: AS4 0.01-20 μM
Procedure: The culture medium was replaced every other day. After confluence, the cells were subcultured following trypsinization. For subcultures, cells were harvested after brief treatment with 0.1% trypsin/ethylenediaminetetraacetic acid (EDTA) solution and seeded at a dilution of 1:10. Cells between passages 12 and 45 were used for studies.
Then SW1353 cells were treated with astragaloside IV (AS4) at a concentration of 0.01 μM, 0.1 μM, 1 μM, 2 μM, 5 μM, 10 μM or 20 μM, followed by incubating for 24 hours or 48 hours. Later, the SW1353 cell culture in each well was treated with 10 μl Cell Counting Kit 8 solution (Dojindo molecular technologies, Gaithersburg, Md., USA), followed by incubation at 37° C. in a humidified incubator with 5% CO2 for 1-4 hours. Then, the absorbance of the SW1353 cell cultures was detected by an EIA reader at 450 nm. Compared with that of the control group, the viability of the experimental groups was analyzed.

MMP1 = experiment: Western blotting of MMP1 protein expression induced by PMA in SW1353 cells (Example 2); assay type: cell-based, human; conditions: for level of MMP1 protein expression (group without AS4 treatment set as 1): then PMA 100 ng/mL 24 h, culture medium
Procedure: Alternatively, the control group was treated with 0.1% dimethyl sulfoxide (DMSO). Phorbol myristate acetate (PMA; Sigma, St. Louis, Mo.) at a concentration of 100 ng/mL was then added into each well and the cells were incubated for 24 hours. The culture medium was collected for western blotting analysis.
Western blotting analysis was carried out based on the following procedure. Cells were washed and lysed in 0.2 mL of lysis buffer (1% NP-40, 50 mM Tris-HCl, pH 7.4, 180 mM NaCl, 1 mM EDTA, 1 mM PMSF, 1 mM NaF, 10 mM Na3VO4) for 30 min at 4° C. After centrifugation at 17500 g for 15 min, the supernatants of cell lysate were collected. Protein concentrations of the samples were measured using the bicinchoninic acid (BCA) protein assay kit according to the manufacturer's protocol (Pierce, Rockford, Ill., USA). Equal amounts of protein samples of concentrated conditioned medium (100 μg) or cell lysate supernatants (50 μg) were mixed with an appropriate volume of 4×SDS sampling buffer and separated on a 8% SDS-PAGE gel. The protein bands separated on the SDS-PAGE gel were blotted onto a polyvinylidene fluoride (PVDF) membrane. The blotted PVDF membrane was washed twice and blocked in freshly prepared Tris-buffered saline (TBS) containing 0.1% Tween-20 and 7% skim milk (TBST) for 2 hours at room temperature. The PVDF membrane was then incubated with a primary antibody against MMP1 protein (Santa Cruz Biotechnology, Santa Cruz, Calif.) for 18 hours at 4° C. Horseradish peroxidase-conjugated anti-goat antibody was used as the secondary antibody. Signals were visualized by an enhanced chemiluminescence kit (Clonetech, Palo Alto, Calif., USA) followed by exposure to X-ray films.
In another testing, the SW1353 cells were treated with 0.1 μM astragaloside IV (AS4), followed by incubation for 24 hours. PMA at a concentration of 100 ng/mL was then added into each well. The culture medium was collected after 6, 12, 18 and 24 hours of PMA treatment for western blotting analysis.

MMP1 mRNA = experiment: RT-PCR of MMP1 mRNA expression in SW1353 cells; assay type: cell-based, human; conditions: for MMP1 mRNA expression after AS4 treatment followed by PMA: then 100 ng/mL PMA 24 h; for MMP1 mRNA expression after only AS4 treatment: 24 h, no PMA
Procedure: First of all, the interaction between TIMP1 mRNA expression and MMP1 mRNA expression in human SW1353 cell line after only AS4 treatment was studied. […] The SW1353 cells were then collected for RT-PCR analysis.
In a second testing, the effect of AS4 treatment followed by PMA treatment was also studied. The SW1353 cells were first treated with astragaloside IV (AS4) at a concentration of 0.01 μM, 0.1 μM, or 1 μM, followed by incubation for 24 hours. Then PMA was added into each well, followed by incubation for 24 hours. These SW1353 cells were also collected for RT-PCR analysis in the end of the second testing.
Total RNAs were isolated from the cultured human cells using NucleoSpin RNAII Kit (Macherey-Nagel Inc., PA, USA). Five μg of RNA was reverse transcribed in a total 20 μl transcription mixture. The reaction tube containing primers (oligo(dT)), RNA, 10 mM dNTP Mix, and DEPC-treated water was first incubated at 65° C. for 5 minutes. Eight μl master reaction mixture containing 4 μl 5× cDNA synthesis Buffer, 1 μl 0.1 M DTT, 1 μl RNase OUT™ (40U/μl), 1 μl DEPC-Treated water, and 1 μl SuperScript™II was then added into the reaction tube. The reaction tube was then incubated at 50° C. for 60 minutes, followed by incubation at 85° C. for 5 minutes. Finally, 1 μl RNase H was added at 37° C. and the reaction tube was incubated for 20 minutes. The resulting cDNA was further amplified by PCR. The relevant primers for the following PCR reaction were listed below.
(i) The MMP1 forward primer is 5′-ACTCTGGAGTAATGTCACACCT-3′ (SEQ ID NO: 1), and the MMP1 reverse primer is 5′-GTTGGTCCACCTTTCATCTTCA-3′ (SEQ ID NO: 2);
In addition, the PCR reaction of MMP1 cDNA was preformed as follows: 95° C. for 5 min, followed by 35 cycles of 94° C. for 30 sec, 60° C. for 30 sec, and 72° C. for 30 sec, and then 72° C. for 10 min followed by maintaining at 4° C. Similarly, the PCR reaction of TIMP1 cDNA was performed as follows: 94° C. for 5 min, followed by 35 cycles of 94° C. for 30 sec, 60° C. for 30 sec, and 72° C. for 30 sec, and then 72° C. for 10 min followed by maintaining at 4° C. The PCR reaction of GAPDH cDNA was performed as follows: 94° C. for 5 min, followed by 18 cycles of 94° C. for 30 sec, 54° C. for 30 sec, and 72° C. for 30 sec, and then 72° C. for 30 sec followed by maintaining at 4° C. These PCR products were analyzed by electrophoresis on a 1.5% gel.

[1] = tested on: ERK1 (P44) and ERK2 (P42); experiment: Western blotting of ERK1/ERK2 in PMA-treated SW1353 cells; assay type: cell-based, human; conditions: PMA 100 ng/mL 2 h, then 1 μM AS4 24 h; value without AS4 2.7
Type II Collagen = experiment: Western blot of Type II Collagen in pre-treated human chondrocytes (HCHs); assay type: cell-based; conditions: IL-1β-pre-treated HCH culture medium; compounds 0.1 μM, 48 h

Question: With `CC(C)(O)[C@@H]1CC[C@](C)([C@H]2[C@@H](O)C[C@@]3(C)[C@@H]4C[C@H](O[C@@H]5O[C@H](CO)[C@@H](O)[C@H](O)[C@H]5O)[C@H]5C(C)(C)[C@@H](O[C@@H]6OC[C@@H](O)[C@H](O)[C@H]6O)CC[C@@]56C[C@@]46CC[C@]23C)O1` [AS4, Astragaloside IV] as the compound, how does the “toxicity to SW1353 cells” value (SW1353 cells; 24 or 48 hours) read?
Answer: non-toxic

Question: What about the “cell proliferation compared with control group” value (SW1353 cells; 24 hours) of the same compound?
Answer: did not change significantly

Question: And the “cell proliferation compared with control group” value (SW1353 cells; 48 hours)?
Answer: did not change significantly

Question: And the “level of MMP1 protein expression (group without AS4 treatment set as 1)” value (“level … (group without AS4 treatment set as 1)” below) (MMP1; AS4 0.01 μM 24 h)?
Answer: 0.77

Question: What about the “level … (group without AS4 treatment set as 1)” value (MMP1; AS4 0.1 μM 24 h) of the same compound?
Answer: 0.64

Question: What about the “level of expression of MMP1 protein at different time points, compared with only PMA treatment” value (MMP1; AS4 0.1 μM 24 h, then PMA 100 ng/mL, 6, 12, 18 and 24 hours) of the same compound?
Answer: inhibited

Question: What about the “level … (group without AS4 treatment set as 1)” value (MMP1; AS4 1 μM 24 h) of the same compound?
Answer: 0.55

Question: What about the “MMP1 mRNA expression after AS4 treatment followed by PMA” value (“MMP1 mRNA expression … by PMA” below) (MMP1 mRNA; AS4 0.01 μM 24 h) of the same compound?
Answer: 0.98

Question: And the “MMP1 mRNA expression after only AS4 treatment” value (MMP1 mRNA; AS4 0.01 μM)?
Answer: 0.97

Question: What about the “MMP1 mRNA expression … by PMA” value (MMP1 mRNA; AS4 0.1 μM 24 h) of the same compound?
Answer: 0.84

Question: And the “MMP1 mRNA expression after only AS4 treatment” value (MMP1 mRNA; AS4 0.1 μM)?
Answer: 1.07

Question: What about the “MMP1 mRNA expression … by PMA” value (MMP1 mRNA; AS4 1 μM 24 h) of the same compound?
Answer: 0.53

Question: What about the “MMP1 mRNA expression after only AS4 treatment” value (MMP1 mRNA; AS4 1 μM) of the same compound?
Answer: 0.93

Question: What about the “value of expression of ERK1 (P44) and ERK2 (P42)” value [1] of the same compound?
Answer: 1.7

Question: And the “Type II Collagen, Western blot, relative to Ctrl 1.00” value (Type II Collagen)?
Answer: 1.16
